Results: PMC11440839, “DOTA Conjugate of Bisphosphonate and PSMA-Inhibitor: A Promising Combination for Therapy of Prostate Cancer Related Bone Metastases” (Frontiers in Nuclear Medicine, 2022)

Biological target: T1, PSMA (prostate-specific membrane antigen); glutamate carboxypeptidase II (GCPII) (Homo sapiens, UniProt Q04609)
T1 construct: gene FOLH1; native full-length type II transmembrane protein on intact LNCaP cells; 750 amino acids
Assay: competitive radioligand assay on LNCaP cells
Format: cell-based
Details: competition with 0.75 nM [68Ga]Ga-PSMA-10, 45 min
Source text: competitive radioligand assay on LNCaP cells on PSMA (prostate-specific membrane antigen); glutamate carboxypeptidase II (GCPII)

T1 sequence (Q04609 whole entry): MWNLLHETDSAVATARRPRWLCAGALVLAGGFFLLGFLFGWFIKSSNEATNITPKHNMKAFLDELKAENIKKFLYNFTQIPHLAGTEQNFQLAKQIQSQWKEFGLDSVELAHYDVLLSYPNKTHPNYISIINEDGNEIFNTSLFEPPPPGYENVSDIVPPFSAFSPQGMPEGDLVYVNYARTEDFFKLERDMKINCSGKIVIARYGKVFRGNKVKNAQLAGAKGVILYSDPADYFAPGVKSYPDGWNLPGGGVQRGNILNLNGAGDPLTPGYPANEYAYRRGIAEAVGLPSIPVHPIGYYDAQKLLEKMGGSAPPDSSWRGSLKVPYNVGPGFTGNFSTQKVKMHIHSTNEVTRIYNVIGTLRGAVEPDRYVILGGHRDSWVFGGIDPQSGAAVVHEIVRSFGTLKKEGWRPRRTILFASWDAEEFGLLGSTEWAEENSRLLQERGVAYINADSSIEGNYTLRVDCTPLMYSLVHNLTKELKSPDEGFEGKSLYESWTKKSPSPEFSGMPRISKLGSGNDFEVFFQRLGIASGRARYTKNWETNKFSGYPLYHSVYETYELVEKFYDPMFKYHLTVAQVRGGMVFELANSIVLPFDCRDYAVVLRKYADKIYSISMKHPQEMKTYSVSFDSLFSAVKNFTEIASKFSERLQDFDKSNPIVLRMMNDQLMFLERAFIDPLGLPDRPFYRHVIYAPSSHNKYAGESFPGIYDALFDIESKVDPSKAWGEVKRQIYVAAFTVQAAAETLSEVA

| SMILES | Ki (reference compound, footnote: IC50 values can be found in the earlier paper of the same first author (ref 48), cited from earlier work) [nM] | Ki (metal-free ligand) [nM] |
| --- | --- | --- |
| O=C(O)CC[C@H](NC(=O)N[C@@H](CCCCNC(=O)[C@H](Cc1ccc2ccccc2c1)NC(=O)[C@H]1CC[C@H](CNC(=O)CN2CCN(CC(=O)O)CCN(CC(=O)O)CCN(CC(=O)O)CC2)CC1)C(=O)O)C(=O)O [PSMA-617] | 6.9 ± 1.3 | – |
| NCCCC[C@H](NC(=O)CN1CCN(CC(=O)O)CCN(CC(=O)O)CCN(CC(=O)O)CC1)C(=O)NC[C@H]1CC[C@H](C(=O)N[C@@H](Cc2ccc3ccccc3c2)C(=O)NCCCC[C@H](NC(=O)N[C@@H](CCC(=O)O)C(=O)O)C(=O)O)CC1 [compound 12, DOTA-L-Lys-PSMA-617] | – | 19.7 ± 3.3 |
| O=C(O)CC[C@H](NC(=O)N[C@@H](CCCCNC(=O)[C@H](Cc1ccc2ccccc2c1)NC(=O)[C@H]1CC[C@H](CNC(=O)[C@H](CCCCNc2c(NCCC(O)(P(=O)(O)O)P(=O)(O)O)c(=O)c2=O)NC(=O)CN2CCN(CC(=O)O)CCN(CC(=O)O)CCN(CC(=O)O)CC2)CC1)C(=O)O)C(=O)O [compound 13, DOTA-L-Lys(SA.Pam)-PSMA-617] | – | 52.6 ± 3.5 |
